Results taken from ChEMBL document CHEMBL5465560, “Selectivity Literature for EUbOPEN Chemogenomic Library” (2024).

Key:
[1] = biological target: Cyclin-dependent kinase 18 (Homo sapiens) (UniProt Q07002); conditions: at 10 µM
[2] = biological target: STE20/SPS1-related proline-alanine-rich protein kinase (Homo sapiens) (UniProt Q9UEW8); experiment: Selectivity interaction (Ambit KINOMEscan and KiNATiv profiling in Jurkat cells) EUB0000090b STK39; assay type: cell-based; conditions: at 1 µM
[3] = biological target: T1, Tyrosine-protein kinase receptor TYRO3 (Homo sapiens) (UniProt Q06418); experiment: Selectivity interaction (KinomeScan (DiscoverX)) EUB0000695a TYRO3; conditions: at 100 nM
T1 sequence (whole entry): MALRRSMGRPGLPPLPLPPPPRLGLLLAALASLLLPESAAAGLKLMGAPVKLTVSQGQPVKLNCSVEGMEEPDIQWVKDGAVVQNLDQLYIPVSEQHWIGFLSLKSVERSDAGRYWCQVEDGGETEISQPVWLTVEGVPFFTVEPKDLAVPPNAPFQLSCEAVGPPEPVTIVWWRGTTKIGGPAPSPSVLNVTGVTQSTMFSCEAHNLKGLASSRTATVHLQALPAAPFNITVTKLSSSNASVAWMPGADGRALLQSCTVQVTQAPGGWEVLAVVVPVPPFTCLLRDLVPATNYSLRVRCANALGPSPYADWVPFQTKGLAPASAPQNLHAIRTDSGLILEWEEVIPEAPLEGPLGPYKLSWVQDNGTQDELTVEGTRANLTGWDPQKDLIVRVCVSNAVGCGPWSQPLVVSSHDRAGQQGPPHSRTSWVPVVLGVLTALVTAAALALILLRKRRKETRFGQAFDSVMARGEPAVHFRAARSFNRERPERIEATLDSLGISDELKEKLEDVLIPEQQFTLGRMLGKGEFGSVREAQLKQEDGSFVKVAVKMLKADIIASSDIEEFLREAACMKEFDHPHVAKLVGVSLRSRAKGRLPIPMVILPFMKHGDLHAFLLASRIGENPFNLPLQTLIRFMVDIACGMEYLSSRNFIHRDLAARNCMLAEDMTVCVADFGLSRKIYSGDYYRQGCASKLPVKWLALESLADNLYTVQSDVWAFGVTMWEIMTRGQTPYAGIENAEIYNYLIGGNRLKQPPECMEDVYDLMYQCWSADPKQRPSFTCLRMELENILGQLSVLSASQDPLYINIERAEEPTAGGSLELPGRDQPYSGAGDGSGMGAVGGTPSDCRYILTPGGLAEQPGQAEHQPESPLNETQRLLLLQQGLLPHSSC

[4] = biological target: Casein kinase II subunit alpha' (Homo sapiens) (UniProt P19784); experiment: Selectivity interaction (KinomeScan (DiscoverX)) EUB0000045b CSNK2A2
[5] = biological target: T2, Serine/threonine-protein kinase TAO2 (Homo sapiens) (UniProt Q9UL54); experiment: Selectivity interaction (KinomeScan (DiscoverX)) EUB0000655a TAOK2; conditions: at 10 µM
T2 sequence (whole entry): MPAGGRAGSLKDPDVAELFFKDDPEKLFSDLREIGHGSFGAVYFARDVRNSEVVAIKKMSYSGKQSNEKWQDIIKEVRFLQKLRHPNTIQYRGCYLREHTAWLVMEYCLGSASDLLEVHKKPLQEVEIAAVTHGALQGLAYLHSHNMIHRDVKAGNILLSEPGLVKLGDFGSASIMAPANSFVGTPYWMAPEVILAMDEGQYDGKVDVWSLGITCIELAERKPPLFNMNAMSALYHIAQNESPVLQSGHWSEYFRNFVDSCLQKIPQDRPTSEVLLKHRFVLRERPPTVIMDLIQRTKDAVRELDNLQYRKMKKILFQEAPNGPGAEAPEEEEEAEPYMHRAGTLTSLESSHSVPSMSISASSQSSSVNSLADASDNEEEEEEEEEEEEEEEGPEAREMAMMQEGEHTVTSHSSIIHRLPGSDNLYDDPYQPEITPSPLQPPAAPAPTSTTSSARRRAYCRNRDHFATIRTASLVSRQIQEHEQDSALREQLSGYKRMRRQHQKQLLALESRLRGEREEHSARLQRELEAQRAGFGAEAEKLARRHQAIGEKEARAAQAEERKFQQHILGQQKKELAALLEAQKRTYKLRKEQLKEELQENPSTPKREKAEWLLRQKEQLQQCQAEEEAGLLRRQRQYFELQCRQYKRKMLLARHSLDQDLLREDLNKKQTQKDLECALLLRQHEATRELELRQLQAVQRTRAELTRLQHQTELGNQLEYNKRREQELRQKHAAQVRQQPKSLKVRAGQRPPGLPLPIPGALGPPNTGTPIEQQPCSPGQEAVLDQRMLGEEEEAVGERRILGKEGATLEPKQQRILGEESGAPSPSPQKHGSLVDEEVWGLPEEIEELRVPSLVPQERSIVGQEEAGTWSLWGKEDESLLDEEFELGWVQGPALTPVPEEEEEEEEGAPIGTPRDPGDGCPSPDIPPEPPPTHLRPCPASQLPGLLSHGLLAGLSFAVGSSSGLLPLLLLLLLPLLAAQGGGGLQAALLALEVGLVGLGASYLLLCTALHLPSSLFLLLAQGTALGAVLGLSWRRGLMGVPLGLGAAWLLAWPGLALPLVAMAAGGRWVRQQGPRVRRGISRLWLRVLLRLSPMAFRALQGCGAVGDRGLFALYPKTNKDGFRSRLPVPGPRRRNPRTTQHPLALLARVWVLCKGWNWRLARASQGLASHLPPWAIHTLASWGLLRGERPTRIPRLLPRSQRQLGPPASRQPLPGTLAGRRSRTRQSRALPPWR

Sequence of Casein kinase II subunit alpha' (Homo sapiens) (P19784 whole entry, looked up): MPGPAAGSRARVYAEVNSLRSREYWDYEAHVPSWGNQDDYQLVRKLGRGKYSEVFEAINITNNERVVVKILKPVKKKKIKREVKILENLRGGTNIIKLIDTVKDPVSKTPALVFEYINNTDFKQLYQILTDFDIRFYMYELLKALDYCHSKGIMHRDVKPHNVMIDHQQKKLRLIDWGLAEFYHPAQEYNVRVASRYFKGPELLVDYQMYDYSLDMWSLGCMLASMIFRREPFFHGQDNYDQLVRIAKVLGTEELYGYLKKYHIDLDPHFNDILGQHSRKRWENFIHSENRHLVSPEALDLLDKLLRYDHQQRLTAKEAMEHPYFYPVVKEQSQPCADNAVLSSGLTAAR
Sequence of Cyclin-dependent kinase 18 (Homo sapiens) (Q07002 whole entry): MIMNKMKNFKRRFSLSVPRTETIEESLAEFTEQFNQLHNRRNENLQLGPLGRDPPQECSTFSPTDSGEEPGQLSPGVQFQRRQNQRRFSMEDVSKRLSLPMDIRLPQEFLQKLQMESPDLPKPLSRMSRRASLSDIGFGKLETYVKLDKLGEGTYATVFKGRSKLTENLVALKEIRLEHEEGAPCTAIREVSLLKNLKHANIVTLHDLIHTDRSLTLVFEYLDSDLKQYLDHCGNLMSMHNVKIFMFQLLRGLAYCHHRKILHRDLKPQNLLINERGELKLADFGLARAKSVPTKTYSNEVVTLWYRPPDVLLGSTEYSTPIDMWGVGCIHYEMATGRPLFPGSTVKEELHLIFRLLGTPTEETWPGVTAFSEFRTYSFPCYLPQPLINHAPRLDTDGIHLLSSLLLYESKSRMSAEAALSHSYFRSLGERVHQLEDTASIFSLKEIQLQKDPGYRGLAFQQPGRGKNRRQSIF

## Cc1cc([C@@H](C)Nc2ccccc2C(=O)O)c2nc(N3CCOCC3)cc(=O)n2c1 [AZD-6482]
[1]
  % of control: 100%

## CN(C)C/C=C/C(=O)Nc1ccc(C(=O)N2CCCC(Nc3ncc(Cl)c(-c4c[nH]c5ccccc45)n3)C2)cc1 (stereo unspecified)
[2]
  % of control: 95%

## Cc1cc(F)c(C(=O)Nc2cccc(-c3nncn3C(C)C)n2)cc1-n1cnc(C2CC2)c1
[3]
  % of control: 86%

## C=CC(=O)Nc1cc(-n2c(=O)ccc3cnc4ccc(-c5ccc(NS(C)(=O)=O)cc5)cc4c32)ccc1C
[4]; at 1 µM
  % of control: 100%
[4]; at 10 µM
  % of control: 67%

## CN(C)CCOc1ccc(-c2nc(-c3ccncc3)c(-c3ccc4c(c3)CC/C4=N\O)[nH]2)cc1
[5]
  % of control: 65%
